Values belong to the molecule of their own block, whether it stands above or below them.
Test system: 653999-131-R-J2-PDC complex spheroids, growth inhibition
Test: Anticancer human tumor 653999-131-R-J2-PDC patient-derived lung adenocarcinoma cell line growth inhibition [RAS]
Conditions: for IC50: curve of first compound; for viability, T/C: stronger effect = lower value
In short: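 Multi-cell-type spheroids: tumor cells plus HUVEC endothelial cells and mesenchymal stem cells. RAS-pathway inhibitors were combined with targeted agents, each dosed in half-log steps down from clinical Cmax, or from 10 microM when Cmax was unknown.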

[1] = second compound 0.000949 µM, first compound 0.0316 µM
[2] = second compound 0.000949 µM, first compound 0.1 µM
[3] = second compound 0.000949 µM, first compound 0.316 µM
[4] = second compound 0.000949 µM, first compound 1 µM
[5] = second compound 0.003 µM, first compound 0.0316 µM
[6] = second compound 0.003 µM, first compound 0.1 µM
[7] = second compound 0.003 µM, first compound 0.316 µM
[8] = second compound 0.003 µM, first compound 1 µM
[9] = second compound 0.00949 µM, first compound 0.0316 µM
[10] = second compound 0.00949 µM, first compound 0.1 µM
[11] = second compound 0.00949 µM, first compound 0.316 µM
[12] = second compound 0.00949 µM, first compound 1 µM
[13] = second compound 0.03 µM, first compound 0.0316 µM
[14] = second compound 0.03 µM, first compound 0.1 µM
[15] = second compound 0.03 µM, first compound 0.316 µM
[16] = second compound 0.03 µM, first compound 1 µM
[17] = second compound 0.0949 µM, first compound 0.0316 µM
[18] = second compound 0.0949 µM, first compound 0.1 µM
[19] = second compound 0.0949 µM, first compound 0.316 µM
[20] = second compound 0.0949 µM, first compound 1 µM
[21] = second compound 0.3 µM, first compound 0.0316 µM
[22] = second compound 0.3 µM, first compound 0.1 µM
[23] = second compound 0.3 µM, first compound 0.316 µM
[24] = second compound 0.3 µM, first compound 1 µM
[25] = second compound 0.000949 µM, first compound 3.16 µM
[26] = second compound 0.000949 µM, first compound 10 µM
[27] = second compound 0.003 µM, first compound 3.16 µM
[28] = second compound 0.003 µM, first compound 10 µM
[29] = second compound 0.00949 µM, first compound 3.16 µM
[30] = second compound 0.00949 µM, first compound 10 µM
[31] = second compound 0.03 µM, first compound 3.16 µM
[32] = second compound 0.03 µM, first compound 10 µM
[33] = second compound 0.0949 µM, first compound 3.16 µM
[34] = second compound 0.0949 µM, first compound 10 µM
[35] = second compound 0.3 µM, first compound 3.16 µM
[36] = second compound 0.3 µM, first compound 10 µM
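Also: spheroids exposed to the agents for seven days before the readout.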

IC50 (second compound 0.000949 µM): > 1 µM | IC50 (second compound 0.003 µM): > 1 µM | IC50 (second compound 0.00949 µM): > 1 µM | IC50 (second compound 0.03 µM): > 1 µM | IC50 (second compound 0.0949 µM): > 1 µM | IC50 (second compound 0.3 µM): > 1 µM
SMILES: CCN1CCN(Cc2ccc(Nc3ncc(F)c(-c4cc(F)c5nc(C)n(C(C)C)c5c4)n3)nc2)CC1 + CCn1c(-c2cccnc2C(C)OC)c2c3cc(ccc31)N1CCOC(CC(NC(=O)C(C(C)C)N(C)C(=O)C3(F)CCN(C(=O)C#CC(C)(C)N(C)C)CC3)C(=O)N3CCCC(N3)C(=O)OCC(C)(C)C2)C1
viability, T/C (second compound 0.000949 µM, first compound 0.00316 µM): 101% | viability, T/C (second compound 0.000949 µM, first compound 0.01 µM): 87.8% | viability, T/C [1]: 75.3% | viability, T/C [2]: 67.6% | viability, T/C [3]: 73.2% | viability, T/C [4]: 78.4% | viability, T/C (second compound 0.003 µM, first compound 0.00316 µM): 98.5% | viability, T/C (second compound 0.003 µM, first compound 0.01 µM): 76.9% | viability, T/C [5]: 75.5% | viability, T/C [6]: 75% | viability, T/C [7]: 71.8% | viability, T/C [8]: 92.9% | viability, T/C (second compound 0.00949 µM, first compound 0.00316 µM): 105% | viability, T/C (second compound 0.00949 µM, first compound 0.01 µM): 99.5% | viability, T/C [9]: 64.8% | viability, T/C [10]: 77.6% | viability, T/C [11]: 80% | viability, T/C [12]: 82.2% | viability, T/C (second compound 0.03 µM, first compound 0.00316 µM): 95.1% | viability, T/C (second compound 0.03 µM, first compound 0.01 µM): 75.7% | viability, T/C [13]: 79.2% | viability, T/C [14]: 64.2% | viability, T/C [15]: 89.9% | viability, T/C [16]: 79.1% | viability, T/C (second compound 0.0949 µM, first compound 0.00316 µM): 90.9% | viability, T/C (second compound 0.0949 µM, first compound 0.01 µM): 85.6% | viability, T/C [17]: 79.5% | viability, T/C [18]: 69.3% | viability, T/C [19]: 83.7% | viability, T/C [20]: 81.3% | viability, T/C (second compound 0.3 µM, first compound 0.00316 µM): 95.4% | viability, T/C (second compound 0.3 µM, first compound 0.01 µM): 81.6% | viability, T/C [21]: 73.7% | viability, T/C [22]: 60.8% | viability, T/C [23]: 84.6% | viability, T/C [24]: 77.6%

IC50 (second compound 0.000949 µM): > 10 µM | IC50 (second compound 0.003 µM): > 10 µM | IC50 (second compound 0.00949 µM): > 10 µM | IC50 (second compound 0.03 µM): > 10 µM | IC50 (second compound 0.0949 µM): > 10 µM | IC50 (second compound 0.3 µM): > 10 µM
SMILES: C[C@@H](NC(=O)c1ncnc(N)c1Cl)c1ncc(C(=O)Nc2cc(C(F)(F)F)c(Cl)cn2)s1 + CCn1c(-c2cccnc2C(C)OC)c2c3cc(ccc31)N1CCOC(CC(NC(=O)C(C(C)C)N(C)C(=O)C3(F)CCN(C(=O)C#CC(C)(C)N(C)C)CC3)C(=O)N3CCCC(N3)C(=O)OCC(C)(C)C2)C1
viability, T/C [1]: 95.5% | viability, T/C [2]: 123% | viability, T/C [3]: 95.5% | viability, T/C [4]: 101% | viability, T/C [25]: 106% | viability, T/C [26]: 83.6% | viability, T/C [5]: 105% | viability, T/C [6]: 104% | viability, T/C [7]: 126% | viability, T/C [8]: 104% | viability, T/C [27]: 100% | viability, T/C [28]: 73.7% | viability, T/C [9]: 113% | viability, T/C [10]: 115% | viability, T/C [11]: 119% | viability, T/C [12]: 112% | viability, T/C [29]: 108% | viability, T/C [30]: 94.8% | viability, T/C [13]: 111% | viability, T/C [14]: 109% | viability, T/C [15]: 107% | viability, T/C [16]: 107% | viability, T/C [31]: 100% | viability, T/C [32]: 95.3% | viability, T/C [17]: 113% | viability, T/C [18]: 97.3% | viability, T/C [19]: 121% | viability, T/C [20]: 107% | viability, T/C [33]: 121% | viability, T/C [34]: 91.5% | viability, T/C [21]: 104% | viability, T/C [22]: 98.9% | viability, T/C [23]: 93.4% | viability, T/C [24]: 121% | viability, T/C [35]: 101% | viability, T/C [36]: 85.9%

IC50 (second compound 0.000949 µM): > 10 µM | IC50 (second compound 0.003 µM): > 10 µM | IC50 (second compound 0.00949 µM): > 10 µM | IC50 (second compound 0.03 µM): > 10 µM | IC50 (second compound 0.0949 µM): > 10 µM | IC50 (second compound 0.3 µM): > 10 µM
SMILES: Cc1nc(N2CCC3(CC2)COC(C)C3N)c(CO)nc1Sc1ccnc(N)c1Cl (stereo unspecified) + CCn1c(-c2cccnc2C(C)OC)c2c3cc(ccc31)N1CCOC(CC(NC(=O)C(C(C)C)N(C)C(=O)C3(F)CCN(C(=O)C#CC(C)(C)N(C)C)CC3)C(=O)N3CCCC(N3)C(=O)OCC(C)(C)C2)C1
viability, T/C [1]: 85.9% | viability, T/C [2]: 87.6% | viability, T/C [3]: 81.8% | viability, T/C [4]: 67.6% | viability, T/C [25]: 81.7% | viability, T/C [26]: 78.9% | viability, T/C [5]: 103% | viability, T/C [6]: 98.2% | viability, T/C [7]: 83.5% | viability, T/C [8]: 70.4% | viability, T/C [27]: 78.6% | viability, T/C [28]: 80.3% | viability, T/C [9]: 96% | viability, T/C [10]: 71% | viability, T/C [11]: 84.8% | viability, T/C [12]: 87% | viability, T/C [29]: 75.2% | viability, T/C [30]: 81.2% | viability, T/C [13]: 89.6% | viability, T/C [14]: 76.8% | viability, T/C [15]: 83.6% | viability, T/C [16]: 75.8% | viability, T/C [31]: 83.2% | viability, T/C [32]: 76.8% | viability, T/C [17]: 92% | viability, T/C [18]: 82.2% | viability, T/C [19]: 93.6% | viability, T/C [20]: 86.5% | viability, T/C [33]: 94.4% | viability, T/C [34]: 77.4% | viability, T/C [21]: 84.1% | viability, T/C [22]: 88.3% | viability, T/C [23]: 72.4% | viability, T/C [24]: 89.7% | viability, T/C [35]: 80.3% | viability, T/C [36]: 81.7%

Source: PubChem BioAssay AID2060886 (Molecular Pharmacology Branch, DTP, NCI, 2025)
